These results are taken from patent US10512656B2, “Compositions and methods for the treatment of lysosomal storage disorders and disorders characterized by lysosomal dysfunction” (Baylor College of Medicine, priority 2016, dated 2019).

For data set [1], the system named is Batten mice (Cln3 KO mice). Description: Neuronal cell death (density of CAS-3 positive cells). The data set is classed as in vivo, mouse. Here is the method:
(§1) Batten mice (Cln3 KO mice) were administered trehalose, a low dose of miglustat, a high dose of miglustat, or a combination of trehalose and miglustat. Two controls were used in these experiments: (1) untreated Batten mice, and (2) untreated wild type mice. Neuronal cell death (measured by the density (no. of cells/area) of CAS-3 positive cells), neuroinflammation (measured by the number of GFAP-positive astrocyte cells in the neuronal system), and macrophage infiltration into the nervous system (measured by the % area of CD68) were measured.

Data set [2] has as its system Batten mice (Cln3 KO mice). Description: Astrogliosis (GFAP-positive cells). In kind it is in vivo, mouse. The method, then: as §1
The test system of data set [3] is Batten mice (Cln3 KO mice). Description: Macrophage infiltration (% area of CD68). The data set is classed as in vivo, mouse. Here is the method: as §1
In data set [4] the target is TFEB-3×FLAG (transcription factor EB, wild type, Flag-tagged) (UniProt P19484).
For data set [5], the system named is TFEB. Description: TFEB nuclear translocation in HeLa/TFEB cells. The data set is classed as cell-based, human. Conditions: confocal microscopy and subcellular fractionation. The method, then: Control (Coriell Institute, USA) and JNCL fibroblasts (Gaslini Institute, Italy) were grown in DMEM (1:1, HyClone) supplemented with 10% heat-inactivated fetal bovine serum (FBS, Atlanta Biologicals), 2 mM L-glutamine, 100 U/ml penicillin and […] streptomycin (Invitrogen). HeLa cells were incubated for 2 h with LY294002 ([…], Cell Signaling), Torin 1 (300 nM, Cayman Chemical) or for 24 h with trehalose (100 mM, Sigma), rapamycin (300 nM, Sigma), MK2206 (1 μM, Selleckchem), U0126 ([…], Tocris) and dialyzed serum (GE Healthcare Life Sciences) for 30 min. For immunofluorescence assay, cells were grown on coverslips in 24-well plates. After the treatment, cells were washed with PBS and fixed with methanol for 10 min. Cells were then blocked with blocking reagent (0.1% saponin, 10% bovine serum in PBS) for 1 h and incubated with appropriate primary antibody(s) (1:100) for 3 h at room temperature. After three washes with PBS, the cells were incubated with appropriate secondary antibodies (1:500) for 1 h at room temperature. Coverslips were then mounted with vectashield containing 4,6-diamidino-2-phenylindole (H-1200) for imaging via confocal microscopy. Cell pellets were resuspended in lysis buffer (10 mM Hepes pH 7.9, 10 mM KCl, 0.1 mM EDTA and 0.4% Nonidet P40) with inhibitors by pipetting and kept in ice for 30 min. After 1 min of spin at full speed, the supernatant was collected as cytosolic fraction. The pellet was washed twice with lysis buffer and resuspended with nuclear buffer (20 mM Hepes pH 7.9, 0.4M NaCl and 1 mM EDTA) containing phosphatases and proteases inhibitors. After 15 min of vigorous shaking on an Eppendorf shaker, the pellet was spun down at full speed for 10 min. The supernatant was used as the nuclear fraction.

Data set [6] concerns TFEB. The data set can be described thus: TFEB nuclear translocation in cells expressing constitutively active Akt (Akt-DD). Conditions: 24 h. In kind it is cell-based, human. Here is the method: FIG. 16. Trehalose controls Akt regulation of TFEB in a GSK3β-independent manner. (a) HeLa cells were treated with trehalose for 24 h or left untreated. Immunoblot analyses were used to evaluate levels of GSK33 and its phosphorylation status. GAPDH was used as a loading control. (b) HeLa cells were cotransfected with TFEB-3×Flag and constitutively active GSK3β (CA-GSK3β), treated with trehalose or MK2206 for 24 h, and examined by immunofluorescence labeling for Flag (red) and GSK3β (green). Scale bar is 20 […]. (c) HeLa cells were cotransfected with TFEB-3×Flag and constitutively active Akt (Akt-DD), treated with the GSK3β inhibitor CHIR99021 for 24 h, and examined by immunofluorescence labeling for Flag (red) and Akt (green). Scale bar is 20 μm.

Where [7] appears, read: all miglustat-treated Batten mice.
Where [8] appears, read: all miglustat-treated mice, P<0.05.

Sequence of TFEB-3×FLAG (transcription factor EB, wild type, Flag-tagged) (P19484 whole entry): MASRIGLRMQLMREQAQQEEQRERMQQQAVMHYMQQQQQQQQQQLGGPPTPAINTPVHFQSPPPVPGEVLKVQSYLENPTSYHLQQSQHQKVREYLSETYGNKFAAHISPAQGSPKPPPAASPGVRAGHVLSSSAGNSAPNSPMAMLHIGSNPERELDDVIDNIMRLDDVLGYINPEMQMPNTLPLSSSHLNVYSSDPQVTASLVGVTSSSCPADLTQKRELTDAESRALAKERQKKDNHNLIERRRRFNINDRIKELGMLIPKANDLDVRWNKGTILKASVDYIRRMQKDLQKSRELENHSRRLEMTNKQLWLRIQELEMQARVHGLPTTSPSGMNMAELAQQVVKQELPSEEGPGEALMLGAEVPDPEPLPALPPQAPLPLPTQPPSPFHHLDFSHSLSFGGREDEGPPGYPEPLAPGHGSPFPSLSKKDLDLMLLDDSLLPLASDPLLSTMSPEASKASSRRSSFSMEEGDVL

Turning to `CCCCN1C[C@H](O)[C@@H](O)[C@H](O)[C@H]1CO` [miglustat], the “neuronal cell death vs wild-type mice” value in data set [1] (setting [7]) is given as “indistinguishable from the wild-type mice”. Moreover, in data set [1] (low dose, high dose, or combined with trehalose, P<0.05), the “neuronal cell death vs untreated Batten mice” value is “less neuronal cell death”. In addition, in data set [2] (setting [7]), the “astrogliosis vs wild-type mice” value was “indistinguishable from the wild-type mice”. In addition, the “GFAP-positive cells vs untreated Batten mice” value in data set [2] (setting [8]) was “less GFAP-positive cells”. Moreover, the “macrophage infiltration vs wild-type mice” value in data set [3] (setting [7]) is “indistinguishable from the wild-type mice”. For the same molecule, the “macrophage infiltration vs untreated Batten mice” value in data set [3] (setting [8]) is listed as “less macrophage infiltration”.

For “purified, active AKT1 enzyme (SignalChem)”, the “in vitro Akt kinase assay ([32P]ATP, autoradiography)” value in data set [4] is “Akt phosphorylates purified TFEB”.

Turning to `CCC(=O)N1CCN(c2ccc(-n3c(=O)ccc4cnc5ccc(-c6cnc7ccccc7c6)cc5c43)cc2C(F)(F)F)CC1` [Torin 1], in data set [5], the “TFEB nuclear translocation on kinase inhibitors” value is reported as “TFEB nuclear translocation”.

As to `Cc1c[nH]c(-c2cnc(NCCNc3ccc(C#N)cn3)nc2-c2ccc(Cl)cc2Cl)n1` [CHIR-99021], the TFEB nuclear translocation result in data set [6] is listed as “promoted nuclear translocation of TFEB”.
